Results on 4 compounds are retold here after publication PMC9322565 (Chemmedchem, 2022).

Data set [1] has as its system L. major IR‐173 promastigotes. The data set is described as follows: Antipromastigote assay (resazurin). The format is cell-based. Particulars: Leishmania major, read-out: Antipromastigote activity, IC50 ±SD, IR‐173. The protocol:
(§1) Antipromastigote assay: The antipromastigote activity of synthesized compounds was evaluated as described previously by […] al.[47] using L. donovani 9515 (MHOM/IN/95/9515) and L. major IR-173 (MHOM/IR/-173). […] Al dri c h) […] The prom astigotes were […] 25 °C. […] Therm ofisher Scientific) in the presence of: […] com pounds for IC50 determination. […] blank. […] Em etine served as the standard cytotoxic drug. […] References […]
On the technique in general: Alamar Blue is a resazurin reagent that responds to reducing activity.

In data set [2] the test system is L. donovani 9515 promastigotes. The data set is described as follows: Antipromastigote assay (resazurin). The data set is classed as cell-based, Leishmania donovani. Particulars: for IC50: Leishmania donovani, read-out: Antipromastigote activity, IC50 ±SD, 9515. The method, then:
as §1

Data set [3] relates to L. donovani 9515 amastigotes. The experiment in a line: Anti‐amastigote assay, intramacrophage (THP‐1), resazurin. The data set is classed as cell-based, Leishmania donovani. Particulars: for Selectivity index SI4: L. donovani 9515: IC50 THP‐1/IC50 amastigote; for IC50: Leishmania donovani, THP-1, L. donovani 9515 intramacrophage amastigotes, read-out: Anti‐amastigote activity, IC50 ±SD, 9515; for Specificity index SpI2: L. donovani 9515: IC50 promastigote/IC50 amastigote. The method, then: (§2) For the anti‐amastigote assay, differentiated plates were carefully washed with PBS, followed by the addition of 200 μL of stationary phase promastigotes in RPMI 1640 medium with 2 % FBS. An MOI of 30 : 1 was used for all three Leishmania strains. […] The treated plates were incubated for 72 hours. After incubation, the plates were gently washed three times with PBS to remove any remaining extracellular parasites. The wells were then treated with 20 μL of 0.05 % sodium dodecyl sulphate in PBS for 30 seconds to lyse the host macrophages. Lysis was terminated by adding 180 μL promastigote growth medium with 10 % FBS. […] Absorbance measurements, calculations and IC50 determinations were performed as described for the antipromastigote assay (Supporting Information).

A short description of data set [4]: Macrophage toxicity, resazurin assay. The data set is classed as cell-based. Particulars: human, differentiated THP-1 cells (macrophages), differentiated THP‐1 macrophages, read-out: Cytotoxicity, THP‐1, IC50±SD. The method, then:
Macrophage toxicity: Toxicity of the compounds on the differentiated host THP‐1 cells were also evaluated. As mentioned, duplicate plates of differentiated THP‐1 cells were prepared during the anti‐amastigote assay. These plates were incubated for 72 hours to differentiate, instead of replacing the growth medium with parasite‐containing medium after 48 hours. […] Blanks were growth medium without cells. The treated plates were incubated for 72 hours, followed by the addition of 50 μL of resazurin solution (0.01 % in PBS) to each well and 24‐hour incubation.

Data set [5] can be described thus: Basal cytotoxicity, resazurin assay. Particulars: human, HEK-293 cells (ATCC CRL 1573), Cytotoxicity, HEK‐293, IC50±SD, HEK‐293 cells, resazurin.
Data set [6] concerns HEK‐293 cells. The data set is described as follows: Basal cytotoxicity, resazurin assay. Particulars: read-out: Cytotoxicity, HEK‐293, IC50±SD; HEK‐293 cells, resazurin.
Data set [7] concerns L. major IR‐173 amastigotes. The experiment in a line: Anti‐amastigote assay, intramacrophage (THP‐1), resazurin. The format is cell-based, Leishmania major. Particulars: for IC50: Leishmania major, THP-1, L. major IR‐173 intramacrophage amastigotes, read-out: Anti‐amastigote activity, IC50 ±SD, IR‐173. The protocol: as §2
A short description of data set [8]: in vitro. Particulars: human, Cytotoxicity, HEK‐293, IC50±SD.
For data set [9] the following is noted: cited from earlier work.
For data set [10] the following is noted: during therapy ref 19; cited from earlier work.

SMILES strings stand for the structures. Converted amounts (≈) assume the structure as drawn. Where only a bound is given, the exact number is not on record here.

Broadly, the IC50 is the concentration at which inhibition is half-maximal. On to `CC(C)c1ccc(Cn2cc(CN3C(=O)CN(/N=C/c4ccc([N+](=O)[O-])o4)C3=O)nn2)cc1` [Compound 13], for which the IC50 in data set [1] was 0.57 ± 0.01 µM; in data set [3] it was 9.13 µM; in [5], less than 10 µM; in data set [6], 7.27 ± 0.93 µM. In addition, the “Antipromastigote activity, IC50 ±SD, 9515” value in data set [2] is “inactive”. In data set [3] (L. donovani 9515: IC50 HEK‐293/IC50 amastigote), the “Selectivity index SI2” value stood at 1. In data set [3], the “Selectivity index SI4” value is given as more than 11. The IC50 at 72 h in data set [4] was more than 100 µM.
For `O=C1CN(/N=C/c2ccc([N+](=O)[O-])o2)C(=O)N1` [NFT, nitrofurantoin, reference compound], the IC50 in [1] was more than 10 µM; in data set [2] it was more than 10 µM; in data set [7] it was more than 10 µM; in [3], 9.92 ± 0.11 µM; in data set [8] it was more than 100 µM. In [3], the “Selectivity index SI4” value is on record as more than 10. Besides, the IC50 at 72 h in data set [4] was more than 100 µM. The “solubility in DMF” value in data set [9] (DMF) is 50 mg/mL (≈ 210 mM). Further, in [9] (DMSO), the “solubility in DMSO” value is 25 mg/mL (≈ 105 mM). Moreover, in data set [9] (water ref 26), the solubility in water is 0.19 mg/mL (≈ 0.798 mM). In data set [10], the excreted unchanged was 33%.
In the case of `O=C(N/N=C/c1ccc([N+](=O)[O-])o1)c1ccc(O)cc1` [NFX, nifuroxazide, reference compound], the IC50 is more than 10 µM in [1]; 4.48 ± 0.1 µM in data set [2]; more than 10 µM in data set [7]; 7.29 ± 0.39 µM in data set [3]; more than 100 µM in [8]. The “Selectivity index SI4” value in data set [3] is more than 14. The “Specificity index SpI2” value in data set [3] turned out to be 0.6. In addition, in [4], the half-maximal inhibitory concentration (IC50) at 72 h is more than 100 µM.
Consider `NC(=O)N/N=C/c1ccc([N+](=O)[O-])o1` [NFZ, nitrofurazone, reference compound], for which the IC50 was 1.22 ± 0.03 µM in data set [1]; 1.82 ± 0.03 µM in data set [2]; 5.75 ± 0.75 µM in data set [7]; 4.94 ± 0.61 µM in data set [3]; more than 100 µM in data set [5]. Besides, the “Selectivity index SI3” value in [7] (L. major IR‐173: IC50 THP‐1/IC50 amastigote) is more than 17. The “Specificity index SpI1” value in [7] (L. major IR‐173: IC50 promastigote/IC50 amastigote) amounted to 0.2. In data set [3], the “Selectivity index SI4” value was more than 20. The “Specificity index SpI2” value in [3] was found to be 0.4. In addition, the IC50 at 72 h in data set [4] was more than 100 µM.
